Source: patent US5264420A, “Fibrinogen receptor antagonists” (Merck & Co., Inc., priority 1992, dated 1993)

Test system: blood platelets
Assay: Inhibition of platelet aggregation
Assay type: cell-based

Compound	IC50
Cc1[nH]c2ccccc2c1CCC(CC(=O)O)NC(=O)CNC(=O)CCCC1CCNCC1 (stereo not drawn) [(14), Pib-Gly-3-[2-(2-methylindol-3-yl)ethyl]β-alanine]	1.1 µM
O=C(O)C[C@H](CCc1c[nH]c2ccccc12)NC(=O)CNC(=O)CCCC1CCNCC1 [(6), Pib-Gly-3(S)-[2-(indol-3-yl)ethyl]β-alanine]	31 µM
CC(CCc1ccccc1)(CC(=O)O)NC(=O)CNC(=O)CCCC1CCNCC1 (centres unmarked) [(7)]	> 300 µM
O=C(O)CC(CCO)NC(=O)CNC(=O)CCCC1CCNCC1 (stereo not drawn) [(8), Pib-Gly-3-[2-(hydroxy)ethyl]β-alanine]	> 1 µM
O=C(O)CC(CCCCO)NC(=O)CNC(=O)CCCC1CCNCC1 (stereo not drawn) [(9), Pib-Gly-3-[4-(hydroxy)butyl],β-alanine]	3.7 µM
CCOC(=O)C[C@H](CCc1c[nH]c2ccccc12)NC(=O)CNC(=O)CCCC1CCNCC1 [(5), Pib-Gly-3(S)-[2-(indol-3-yl)ethyl]-β-alanine ethyl ester]	> 1 µM

The remaining compounds from weak to strong by IC50, led by results:

IC50	Compound
4 µM	Pib-Gly-3-(3-carboxypropyl)β-alanine [(13)]
2.7 µM	O=C(O)CC(CCc1c[nH]cn1)NC(=O)CNC(=O)CCCC1CCNCC1 (stereo not drawn) [(11), Pib-Gly-3-[2-(imidazol-4-yl)ethyl]β-alanine]
2.1 µM	O=C(O)CC(COc1ccccc1)NC(=O)CNC(=O)CCCC1CCNCC1 (stereo not drawn) [(10), Pib-Gly-3-(phenoxymethyl)β-alanine]
1.5 µM	O=C(O)CC(CCc1cncn1Cc1ccccc1)NC(=O)CNC(=O)CCCC1CCNCC1 (stereo not drawn) [(12), Pib-Gly-3-[2-(3-benzylimidazol-4-yl)ethyl]β-alanine]
0.25 µM	O=C(O)C[C@@H](CCc1ccccc1)NC(=O)CN(Cc1ccccc1)C(=O)CCCC1CCNCC1 [(1), Pib-N-(benzyl)Gly-3(R)-(2-phenethyl)-β-alanine]
0.099 µM	CC(C)N(C(=O)CCCC1CCNCC1)[C@H](CCc1ccccc1)CC(=O)O [(3), Pib-N-(i-Propyl)-3(R)-(2-phenethyl)-β-alanine]
0.087 µM	O=C(O)C[C@@H](CCc1ccccc1)NC(=O)CN(CCc1ccccc1)C(=O)CCCC1CCNCC1 [(4), Pib-N-(2-phenethyl)Gly-3(R)-(2-phenethyl)-β-alanine]
0.077 µM	CCCCN(CC(=O)N[C@H](CCc1ccccc1)CC(=O)O)C(=O)CCCC1CCNCC1 [(2), Pib-N-(n-butyl)Gly-3(R)-(2-phenethyl)-β-alanine]
